Assay results: ChEMBL document CHEMBL1136101, “An evaluation of a C-glucuronide as a liver targeting group: conjugate of a glucocorticoid antagonist” (Bioorg Med Chem Lett, 2003)

Columns and labels:
[1] = Plasma concentration at 7 hr after intravenous dosing; assay type: ADME
[2] = Half-life period was determined; assay type: ADME
Glucocorticoid receptor [3] = biological target: T1, Glucocorticoid receptor (Homo sapiens, UniProt P04150); assay: Inhibition of Dexamethasone binding to Glucocorticoid receptor
T1 sequence (P04150 whole entry): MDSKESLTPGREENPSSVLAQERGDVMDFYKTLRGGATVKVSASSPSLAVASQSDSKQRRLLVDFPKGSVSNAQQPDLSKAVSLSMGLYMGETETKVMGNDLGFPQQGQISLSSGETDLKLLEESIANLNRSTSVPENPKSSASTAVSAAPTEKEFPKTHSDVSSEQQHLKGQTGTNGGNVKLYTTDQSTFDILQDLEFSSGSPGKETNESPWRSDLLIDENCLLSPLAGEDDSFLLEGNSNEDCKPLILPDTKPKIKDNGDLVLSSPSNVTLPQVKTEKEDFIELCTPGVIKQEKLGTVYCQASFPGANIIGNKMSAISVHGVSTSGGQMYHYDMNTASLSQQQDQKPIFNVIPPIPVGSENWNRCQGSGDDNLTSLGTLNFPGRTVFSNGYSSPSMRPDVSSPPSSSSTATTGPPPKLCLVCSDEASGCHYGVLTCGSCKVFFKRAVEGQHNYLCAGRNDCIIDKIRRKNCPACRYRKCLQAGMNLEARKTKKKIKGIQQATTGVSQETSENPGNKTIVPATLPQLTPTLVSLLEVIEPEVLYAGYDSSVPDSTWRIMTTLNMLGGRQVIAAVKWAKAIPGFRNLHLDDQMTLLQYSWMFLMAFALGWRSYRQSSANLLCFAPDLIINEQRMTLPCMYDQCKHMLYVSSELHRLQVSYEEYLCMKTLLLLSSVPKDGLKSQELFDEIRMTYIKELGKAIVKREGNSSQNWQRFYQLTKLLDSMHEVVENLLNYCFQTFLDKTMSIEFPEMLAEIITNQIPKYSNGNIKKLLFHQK

Glucocorticoid receptor [4] = biological target: T1, Glucocorticoid receptor; assay: Inhibition of Dexamethasone stimulated transcriptional activity in CHO cells expressing glucocorticoid receptor; assay type: functional, cell-based
Glucocorticoid receptor [5] = biological target: T2, Glucocorticoid receptor (Rattus norvegicus, UniProt P06536); assay: Inhibition of prednisilone-induced tyrosine aminotransferase (TAT) activity in rat hepatocytes; assay type: cell-based, Hepatocyte
T2 sequence (P06536 whole entry): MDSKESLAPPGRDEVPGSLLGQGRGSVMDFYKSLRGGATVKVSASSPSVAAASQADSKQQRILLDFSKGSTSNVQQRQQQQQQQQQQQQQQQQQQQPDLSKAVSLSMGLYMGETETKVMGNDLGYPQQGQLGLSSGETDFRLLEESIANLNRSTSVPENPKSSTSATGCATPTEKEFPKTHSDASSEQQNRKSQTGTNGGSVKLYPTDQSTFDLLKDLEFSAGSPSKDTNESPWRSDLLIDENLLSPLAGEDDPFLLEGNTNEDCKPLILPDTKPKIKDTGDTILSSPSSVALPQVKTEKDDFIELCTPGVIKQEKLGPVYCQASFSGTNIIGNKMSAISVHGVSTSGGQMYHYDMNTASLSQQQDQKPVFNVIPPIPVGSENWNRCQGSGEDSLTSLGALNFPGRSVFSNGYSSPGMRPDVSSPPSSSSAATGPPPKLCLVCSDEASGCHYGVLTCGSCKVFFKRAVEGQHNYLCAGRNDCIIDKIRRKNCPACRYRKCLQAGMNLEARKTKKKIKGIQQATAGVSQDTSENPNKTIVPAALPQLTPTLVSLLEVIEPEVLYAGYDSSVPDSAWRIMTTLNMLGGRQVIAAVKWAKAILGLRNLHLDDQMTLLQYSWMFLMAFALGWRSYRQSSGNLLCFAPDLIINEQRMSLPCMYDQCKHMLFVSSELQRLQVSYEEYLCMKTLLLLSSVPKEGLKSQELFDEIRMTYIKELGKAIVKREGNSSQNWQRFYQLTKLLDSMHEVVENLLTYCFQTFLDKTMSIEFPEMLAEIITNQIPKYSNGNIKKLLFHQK

[6] = Plasma clearance by iv administration at a dose 5 mg/kg; conditions: read-out: Clp (converted)

CC#C[C@]1(O)CC[C@H]2[C@@H]3CCC4=CC(=O)CCC4=C3[C@@H](c3ccc(N(C)CCCC4OC(C(=O)O)C(O)C(O)C4O)cc3)C[C@@]21C (stereo partly specified)
concentration at 7 h [1]: 3 ng/mL
half-life [2]: 1.8 h
IC50 (Glucocorticoid receptor [3]): 16.7 nM
IC50 (Glucocorticoid receptor [4]): 550 nM
IC50 (Glucocorticoid receptor [5]): 2800 nM
clearance [6]: 88.3 mL/min/kg
